Patent US9006238B2, “Pyrazolo pyridine derivatives as NADPH oxidase inhibitors” (Genkyotex SA, priority 2008, dated 2015)

What was measured:
NOX [1] = biological target: T1, NOX (Homo sapiens, UniProt P04839); assay: Amplex Red measurement of extracellular hydrogen peroxide (NOX activity) using DMSO-differentiated HL60 cells; type: cell-based; conditions: for IC50 / Inhibition (%) of NOX activity: DMSO-differentiated HL60 cells; for Inhibition (%) of NOX activity: test concentration not given
T1 construct: HL60 differentiation to the neutrophil phenotype was triggered by adding Me2SO; endogenous in cells; host or cells: HL-60 cells differentiated with DMSO (1.25% v/v, 6 days) to the neutrophil phenotype
T1 sequence (P04839 1-570): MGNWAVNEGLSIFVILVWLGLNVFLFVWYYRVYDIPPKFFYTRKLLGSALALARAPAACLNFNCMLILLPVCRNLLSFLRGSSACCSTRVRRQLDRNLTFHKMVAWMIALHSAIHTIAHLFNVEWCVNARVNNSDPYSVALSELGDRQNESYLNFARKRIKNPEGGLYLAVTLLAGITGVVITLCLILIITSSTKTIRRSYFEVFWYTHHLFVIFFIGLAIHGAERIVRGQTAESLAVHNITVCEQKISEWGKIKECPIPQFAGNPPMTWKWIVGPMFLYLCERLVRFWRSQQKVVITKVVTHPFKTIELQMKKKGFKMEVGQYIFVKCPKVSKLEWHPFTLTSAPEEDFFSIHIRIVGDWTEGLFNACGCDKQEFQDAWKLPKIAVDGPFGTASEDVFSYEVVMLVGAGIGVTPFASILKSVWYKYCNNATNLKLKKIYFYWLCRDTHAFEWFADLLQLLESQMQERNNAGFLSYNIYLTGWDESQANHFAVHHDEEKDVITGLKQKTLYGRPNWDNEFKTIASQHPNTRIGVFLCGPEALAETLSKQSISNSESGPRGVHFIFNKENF
T1 sequence (P13498 1-195 partner): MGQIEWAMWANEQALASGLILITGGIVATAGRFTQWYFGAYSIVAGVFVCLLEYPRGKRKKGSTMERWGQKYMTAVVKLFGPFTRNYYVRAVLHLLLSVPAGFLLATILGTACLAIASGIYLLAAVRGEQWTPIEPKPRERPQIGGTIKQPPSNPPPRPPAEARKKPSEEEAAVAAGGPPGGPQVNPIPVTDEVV
Description: (§1) The activity of the compounds according to the invention may be tested for their activity in the inhibition or reduction of formation of reactive oxygen species (ROS) from oxygen in cells. The activity of the compounds is tested in the following cell cultures by different techniques such as nitroblue tetrazolium, Amplex Red, Chemiluminescence (Luminol) and 2′,7′-dichlorodihydrofluorescein diacetate (H2DCF-DA) according to the protocols detailed below.
Human acute myeloid leukemia cell line HL-60 was cultured in RPMI 1640 (Invitrogen) supplemented with 10% heat-inactivated calf serum, 2 mM glutamine, 100 U/mL penicillin (Sigma), and 100 μg streptomycin (Sigma) at 37° C. under a humidified atmosphere of 5% CO2. HL60 differentiation to the neutrophil phenotype was triggered by adding Me2SO (final concentration 1.25% v/v for 6 days) to the culture medium.
(§2) Extracellular hydrogen peroxide was measured using Amplex UltraRed (Molecular Probes). Cells were trypsinized (1× Trypsin-EDTA), collected by centrifugation, and resuspended in HBSS supplemented with 1% glucose. Cells were seeded into black 96-well plates at a density of 50,000 cells in 200 μl testing buffer (HBSS 1% glucose containing 0.005 U/mL horseradish peroxidase (Roche) and 50 μM Amplex Red in the presence or absence of compounds according to the invention. As a control, DPI was included at a final concentration of 10 μM The plates were placed in the fluorescent Optima Fluorescent plate reader and kept at 37° C. during 20 min. Fluorescence was measured for […] with excitation and emission wavelengths of 544 nm and 590 nm respectively. NOX activities were expressed as % of the activity in control cells. Residual activity of DPI-treated cells was usually <10%.
The Table 2 below summarizes the percentage of inhibition of NOX activity as measured by Amplex Red using DMSO-differentiated HL60 cells as described above:
The Table 3 below summarizes the IC50 of NOX activity as measured by Amplex Red using DMSO-differentiated HL60 cells as described above: […]

NOX [2] = assay: Chemiluminescence (luminol) measurement of ROS in cell cultures; type: cell-based, human; conditions: 60 minutes at 37° C.
Description: as §1, §2
ROS was measured using the chemiluminescent probe luminol. […]

NOX [3] = assay: Nitroblue tetrazolium (NBT) test of intracellular and extracellular superoxide in cell cultures; type: cell-based, human; conditions: DPI final concentration 10 μM, 2.5 h
Description: as §1
Human microglia cell line (HMC3, human microglia clone 3) (Janabi et al., 1995, Neurosci. Lett. 195:105) were cultured in MEM (Eagle's minimum essential medium) containing 10% FBS with 50 U/ml penicillin G sodium 50 μg/ml streptomycin sulfate, and incubated at 37° C. for 24 hours. IFN-γ (human IFN-γ, Roche. 11 040 596 001) was added to the culture medium for a final concentration of 10 ng/ml 24 h, before detection of O2^− formation. […]
Intracellular and extracellular superoxide was measured by a colorimetric technique using a quantitative nitroblue tetrazolium (NBT) test. SOD-inhibitable conversion of NBT to formazan, a fine blue precipitate, in the presence of superoxide anion was measured using Fluostar Optima spectrometer (BMG labtech). […] The absorption was measured at 630 nm. For calculation, the absorbance at 630 nm was normalized for each individual well. […] NOX activities were expressed as % of the activity in control cells. […]

NOX [4] = assay: H2DCF-DA (DCF fluorescence) measurement of ROS in HUVEC stimulated with TGF-β; type: cell-based, human; conditions: TGF-β stimulation
Description: The activity of the compounds according to the invention may be tested for their activity in the inhibition or reduction of formation of reactive oxygen species (ROS) from oxygen in cells. The activity of the compounds is tested in the following cell cultures by different techniques such as nitroblue tetrazolium, Amplex Red, Chemiluminescence (Luminol) and 2′,7′-dichlorodihydrofluorescein diacetate (H2DCF-DA) according to the protocols detailed below. […]
HUVEC were plated on coverslips and made quiescent overnight in 0.5% BSA before stimulation with TGF-β. […] DCF fluorescence was visualized at an excitation wavelength of 488 nm and emission at 515 to 540 nm. […] For calculation, the absorbance at […] was normalized to absorbance at […] for each individual well. […] NOX activities were expressed as % of the activity in control cells. […]

Row | Compound | IC50 (NOX [1]) | Inhibition (%) of NOX activity (NOX [1]) | Residual activity of DPI-treated cells (NOX activity as % of the activity in control cells) (NOX [2]) | Residual activity of DPI-treated cells (NOX activity as % of the activity in control cells) (NOX [3]) | Residual activity of DPI-treated cells (NOX activity as % of the activity in control cells) (NOX [4]) | Residual activity of DPI-treated cells (NOX activity as % of the activity in control cells) (NOX [1]; DPI final concentration 10 μM)
1 | COCCn1[nH]c2cc(=O)n(CCOC)c(-c3ccc(Cl)cc3)c2c1=O [Compound 58, 4-(4-chlorophenyl)-2,5-bis(2-methoxyethyl)-1H-pyrazolo[4,3-c]pyridine-3,6 (2H,5H)-dione] | < 5 µM | 95% |  |  |  | 
2 | COCCn1[nH]c2cc(=O)n(Cc3ccccc3CN3CCOCC3)c(C)c2c1=O [Compound 18, 2-(2-methoxyethyl)-4-methyl-5-[2-(morpholin-4ylmethyl)benzyl]-1H-pyrazolo[4,3-c]pyridine-3,6(2H,5H)-dione] | < 5 µM | 75% |  |  |  | 
3 | c1ccc([I+]c2ccccc2)cc1 [DPI, Diphenyl-iodonium] |  |  | < 10% | < 10% | < 10% | < 10%
4 | Cc1c2c(=O)n(CC(C)C)[nH]c2cc(=O)n1C1CCc2ccccc21 (stereo not shown) [Compound 48, 5-(2,3-dihydro-1H-inden-1-yl)-4-methyl-2-(2-methylpropyl)-1H-pyrazolo[4,3-c] pyridine-3,6(2H,5H)-dione] | < 5 µM | 91% |  |  |  | 
5 | Cc1c2c(=O)n(Cc3ccccc3)[nH]c2cc(=O)n1Cc1ccccn1 [Compound 1, 2-Benzyl-4-Methyl-5-(Pyridin-2-Ylmethyl)-1H-Pyrazolo[4,3-c]Pyridine-3,6(2H,5H)-Dione] | < 5 µM | 67% |  |  |  | 
6 | Cc1c2c(=O)n(C)[nH]c2cc(=O)n1C [Compound 5, 2,4,5-Trimethyl-1H-Pyrazolo[4,3-c]Pyridine-3,6(2H,5H)-Dione] | < 5 µM | 48% |  |  |  | 
7 | Cc1c2c(=O)n(CCc3ccccc3)[nH]c2cc(=O)n1Cc1ccccc1CN1CCOCC1 [Compound 30, 4-methyl-5-[2-(morpholin-4-ylmethyl)benzyl]-2-(2-phenylethyl)-1H-pyrazolo[4,3-c]pyridine-3,6(2H,5H)-dione] | < 5 µM | 77% |  |  |  | 
8 | COc1cccc(Cn2c(C)c3c(=O)n(CCN4CCOCC4)[nH]c3cc2=O)c1 [Compound 83, 5-(3-methoxybenzyl)-4-methyl-2-(2-morpholin-4-ylethyl)-1H-pyrazolo[4,3-c] pyridine-3,6(2H,5H)-dione] | < 5 µM | 89% |  |  |  | 
9 | Cc1c2c(=O)n(C)[nH]c2cc(=O)n1CCN1CCOCC1 [Compound 16, 2,4-Dimethyl-5-(2-Morpholin-4-Ylethyl)-1H-Pyrazolo[4,3-c]Pyridine-3,6(2H,5H)-Dione] | < 5 µM | 74% |  |  |  | 
10 | Cc1c2c(=O)n(C)[nH]c2cc(=O)n1Cc1ccccn1 [Compound 4, 2,4-Dimethyl-5-(Pyridin-2-Ylmethyl)-1H-Pyrazolo[4,3-c]Pyridine-3,6(2H,5H)-Dione] | < 5 µM | 65% |  |  |  | 
